{"source": "patent US8207090B2", "about": "“Process for the anti-germination and/or biocide treatment of bulbs or tubers by means of CIPC and a terpene or terpene oil” (Xeda International, priority 2005, dated 2012)", "key": {"[1]": {"test_system": "potatoes", "conditions": "cited from earlier work; for Inhibition of tuber sprouts: in combination with CIPC"}, "[2]": {"assay": "Solubility of CIPC in solvents / terpenes", "type": "physicochemical", "conditions": "with terpenes/terpene oils, at ambient temperature and as low as 0° C.", "method": "Furthermore, CIPC dissolves with difficulty in conventional solvents, and maximum CIPC concentrations of approximately 30% (weight/volume) are generally obtained. At best, concentrations of approximately 54% at […] have been obtained. This low solubility entails the use of large amounts of solvent and/or formulation in order to obtain the required amounts of active ingredient. Nevertheless, efforts are generally made to limit the use of these solvents owing to their inherent toxicity and/or the danger of use that they entail, especially as a result of their low boiling points, which result in high risks of flammability.\nIt has now been discovered, and this is one of the subjects of the present invention, that terpenes and/or terpene oils, in particular eugenol, isoeugenol or clove oil, have a high capacity to dissolve CIPC, even in cases in which the two agents are applied separately. In particular, the use of terpenes and/or terpene oils of this type, applied before or after the CIPC, allows improved distribution of the CIPC on the potatoes. The separate application of the terpene or terpene oil therefore allows improved application, and accordingly penetration and efficacy, of the CIPC. […]"}, "[3]": {"conditions": "in conventional solvents, cited from earlier work"}}}
{"smiles": "C=C(C)[C@H]1CC=C(C)CC1", "note": "[limonene]", "values": [{"measurement": "Inhibition of tuber sprouts", "setting": "[1]", "value": "does not produce positive results"}]}
{"smiles": "CC/C=C\\CC1=C(C)CCC1=O", "note": "[jasmone]", "values": [{"measurement": "Inhibition of tuber sprouts", "setting": "[1]", "value": "does not produce positive results"}]}
{"smiles": "C=C(C)C1CC=C(C)C(=O)C1", "note": "(stereo not drawn) [carvone]", "values": [{"measurement": "Treated batches of potatoes suitable for sale", "setting": "[1]; dosage of 16.6 ppm, agent on its own", "value": 0, "unit": "%"}]}
{"smiles": "CC(C)OC(=O)Nc1cccc(Cl)c1", "note": "[CIPC, 3-chlorophenylisopropylcarbamate]", "values": [{"measurement": "CIPC concentration", "setting": "[2]", "value": "greater than 50 % by weight of CIPC relative to the total volume of the solution"}, {"measurement": "CIPC concentration, at best", "setting": "[3]; at 180° C.", "value": "approximately 54%"}, {"measurement": "Maximum CIPC concentration", "setting": "[3]", "value": "approximately 30 % (weight/volume)"}]}
